Assay results from patent US20100093541A1, “HERBICIDE COMBINATION COMPRISING DIMETHOXYTRIAZINYL SUBSTITUTED DIFLUOROMETHANESULFONYLANILIDES” (BAYER CROPSCIENCE AG, priority 2008, published 2010).

How the values were obtained:
Type in all cases: in vivo
[1] = system: Triticum aestivum (TRZAS); test: Post-emergence action, greenhouse pot test, visual scoring
Protocol: (§1) Seeds or rhizome pieces of mono- and dicotyledonous harmful and useful plants were placed in peat pots (diameter 4 cm) filled with sandy loam and then covered with soil. The pots were kept in a greenhouse under optimum conditions. In addition, harmful plants encountered in paddy rice cultivation were cultivated in pots with a water level 2 cm above the soil surface.
(§2) About three weeks after the start of the cultivation, the test plants were treated at the 2- to 3-leaf stage. The herbicides, formulated as powder or liquid concentrates, were, either alone or in the combinations according to the invention, sprayed in various dosages on to the green parts of the plants using an application rate of 600 l of water/ha (converted). For further cultivation of the plants, the pots were then again kept under optimum conditions in a greenhouse.
(§3) The visual scoring of the herbicidal effects was carried out in intervals up to 21 days after the treatment. Scoring was carried out in percent in comparison to the untreated control plants. 0%=no herbicidal activity, 100%=complete herbicidal activity=complete kill.
(§4) The percentages from the treatments with the herbicides alone (=individual application) and with the combinations according to the invention (=mixtures) were employed to calculate interactions using the method of Colby. When the observed efficacies of the mixtures exceed the formal sum of the values of the tests with individual applications, they also exceed the expected value according to Colby, which is calculated using the formula below (cf. S. R. Colby; in Weeds 15 (1967) pp. 20 to 22):
(§5) • A, B=activity of components A and B in percent at a dosage of a and b g of ai/ha (=gramm of active substance per hectare), respectively. • E=expected value in % at a dosage of a+b g of ai/ha.
(§6) The combinations according to the invention of herbicides from group (A) with herbicides from group (B) were tested on a broad spectrum of important harmful plants (weed grasses, broad-leaved weeds/Cyperaceae) and useful plants: Triticum aestivum (TRZAS), Stellaria media (STEME), Lolium multiflorum (LOLMU), Veronica persica (VERPE), Alopecurus myosuroides (ALOMY), Matricaria inodora (MATIN), Brassica napus (BRSNW), Viola tricolor (VIOTR), Avena fatua (AVEFA), Amaranthus retroflexus (AMARE), Zea mays (ZEAMX), Pharbitis purpurea (PHBPU), Setaria viridis (SETVI), Fallopia (ex Polygonum) convolvulus (POLCO), Echinochloa crus-galli (ECHCG), Abuthilon theophrasti (ABUTH), Cyperus esculentus (CYPES), Oryza sativa (ORYSA).
(§7) Of particular interest are the results shown in the tables (Tab.) below, where the following key is used: • (1) EPPO code (former Bayer code) for the treated plant (see above) • (2) Time of scoring: DAT (days after treatment) • (3) Component A tested (identifying number) • (4) Component B tested (identifying number) • (5) Dosage component A [g of ai/ha] • (6) Dosage component B [g of ai/ha] • (7) % activity found • (8) E value (calculated according to Colby; see above) • (9) Comments: “SYNERGY”=synergistic interaction (E value<% activity found); “SAFENING”=safener action on useful plant (E value>% activity found)

[2] = system: Avena fatua (AVEFA); test: Post-emergence action against weeds, greenhouse pot test, visual scoring
Protocol: as §1, §2, §3, §4, §5, §6, §7

[3] = system: Fallopia (ex Polygonum) convolvulus (POLCO); test: as above; conditions: 10 DAT, component B 150 g of ai/ha
Protocol: as §1, §2, §3, §4, §5, §6, §7

[4] = system: Matricaria inodora (MATIN); test: as above; conditions: 21 DAT
Protocol: as §1, §2, §3, §4, §5, §6, §7

[5] = system: Setaria viridis (SETVI); test: as above
Protocol: as §1, §2, §3, §4, §5, §6, §7

[6] = system: Viola tricolor (VIOTR); test: as above
Protocol: as §1, §2, §3, §4, §5, §6, §7

[7] = system: Oryza sativa (ORYSA); test: Post-emergence action, greenhouse pot test, visual scoring; conditions: 21 DAT, component B 150 g of ai/ha
Protocol: as §1, §2, §3, §4, §5, §6, §7

[8] = system: Zea mays (ZEAMX); test: as above
Protocol: as §1, §2, §3, §4, §5, §6, §7

[9] = system: Cyperus esculentus (CYPES); test: Post-emergence action against weeds, greenhouse pot test, visual scoring
Protocol: as §1, §2, §3, §4, §5

[10] = system: Alopecurus myosuroides (ALOMY); test: as above; conditions: 21 DAT, component B 40 g of ai/ha
Protocol: as §1, §2, §3, §4, §5, §6, §7

[11] = 10 DAT, component B 50 g of ai/ha
[12] = 21 DAT, component B 50 g of ai/ha
[13] = 21 DAT, component B 150 g of ai/ha
[14] = 21 DAT, component B 40 g of ai/ha
[15] = 21 DAT, component B 120 g of ai/ha

COc1nc(OC)nc(C(=O)c2cccc(F)c2N(C)S(=O)(=O)C(F)F)n1 [A-1]
% activity found ([1]; 21 DAT, component A 12 g of ai/ha, Table 16): 0%

N#Cc1cc(Br)c(O)c(Br)c1 [B1-1, 3,5-dibromo-4-hydroxybenzonitrile]
% activity found [2, 11]: 0% | % activity found [3]: 10% | % activity found ([4]; component B 150 g of ai/ha): 70% | % activity found ([4]; component B 150 g of ai/ha, Table 9): 60% | % activity found [5, 11]: 20% | % activity found [5, 12]: 20% | % activity found [5, 13]: 20% | % activity found [6, 11]: 20% | % activity found [6, 13]: 20% | % activity found [7]: 0% | % activity found [1, 13]: 0% | % activity found [8, 11]: 0% | % activity found ([8]; 10 DAT, component B 150 g of ai/ha): 20% | % activity found [8, 12]: 0% | % activity found [9, 11]: 0% | % activity found [9, 12]: 0% | % activity found [9, 13]: 0%

C#CCN(C)c1c(C#N)cnn1-c1nn2c(c1Cl)CCCC2 [B1-4, 1-(3-chloro-4,5,6,7-tetrahydropyrazolo[1,5-a]pyridin-2-yl)-5-(methyl-2-propynylamino)-1H-pyrazole-4-carbonitrile]
% activity found [10]: 30% | % activity found [2, 14]: 40% | % activity found ([4]; component B 120 g of ai/ha): 80% | % activity found ([1]; 10 DAT, component B 40 g of ai/ha): 40% | % activity found ([1]; 10 DAT, component B 120 g of ai/ha): 60% | % activity found [1, 14]: 30% | % activity found [1, 15]: 60% | % activity found [9, 15]: 40%
